Measurements reported in the NIST ThermoML archive (doi:10.1021/je0501484).

Assay: mn = molality of the nth substance listed, in mol/kg
Conditions: 101 kPa, Liquid

CCCCCC(=O)[O-].[Na+] [sodium hexanoate] + O
Conditions	mass density, m1 = 0.5 [kg/m3]	mass density, m1 = 1 [kg/m3]	mass density, m1 = 1.5 [kg/m3]	mass density, m1 = 2.177 [kg/m3]	viscosity, m1 = 0.5 [mPa·s]	viscosity, m1 = 1 [mPa·s]	viscosity, m1 = 1.5 [mPa·s]	viscosity, m1 = 2.177 [mPa·s]
298.15 K	1014.4	1029.41	1041.88	1054.22	1.212	1.607	2.102	3.187
308.15 K	1010.74	1024.96	1036.7	1048.72	0.956	1.24	1.601	2.402
